Data from PubChem BioAssay AID342 (DTP/NCI, 2004).
Several values for one entry are separate records, joined by “and”; a condition that tells them apart may be missing. Identical values can stand only once.

Test system: Swiss mice, Sarcoma 180 sc, mean tumor weight T/C
Experiment: NCI In Vivo Anticancer Drug Screen. Data for tumor model Sarcoma 180 (subcutaneous) in Swiss mice
Conditions: endpoint: mean tumor weight, higher = larger tumour
Protocol: The antitumor activity of compounds was measured in mice bearing transplantable tumors. Survival or tumor size were measured and the results are expressed as the measurement made in the treated group (T) divided by the measurement made in the vehicle treated control group (C). The tumor model used in this assay is Sarcoma 180 (subcutaneous) in Swiss mice

[1] = dose: 125.0 mg/kg/injection, schedule: Q01DX007 (ip), vehicle: carboxymethylcellulose (CMC)
[2] = dose: 250.0 mg/kg/injection, schedule: Q01DX007 (ip), vehicle: carboxymethylcellulose (CMC)
[3] = dose: 500.0 mg/kg/injection, schedule: Q01DX007 (ip), vehicle: carboxymethylcellulose (CMC)
[4] = dose: 62.5 mg/kg/injection, schedule: Q01DX007 (ip), vehicle: saline

SMILES: CC(=O)[C@H]1[C@H](C)C[C@H]2[C@@H]3CCC4=CC(=O)CC[C@]4(C)[C@@]3(F)[C@@H](O)C[C@@]21C
- T/C (dose: 3.0 mg/kg/injection, schedule: Q01DX007 (sc), vehicle: steriod suspending solution): 87 % of control
- T/C (dose: 6.1 mg/kg/injection, schedule: Q01DX007 (sc), vehicle: steriod suspending solution): 63 % of control
- T/C (dose: 12.5 mg/kg/injection, schedule: Q01DX007 (sc), vehicle: steriod suspending solution): 47 % of control
- T/C (dose: 25.0 mg/kg/injection, schedule: Q01DX007 (sc), vehicle: steriod suspending solution): 44 % of control
- T/C (dose: 47.0 mg/kg/injection, schedule: Q01DX007 (sc), vehicle: steriod suspending solution): 13 % of control
- T/C (dose: 94.0 mg/kg/injection, schedule: Q01DX007 (sc), vehicle: steriod suspending solution): 26 % of control
- T/C (dose: 187.5 mg/kg/injection, schedule: Q#A X014 (sc), vehicle: steriod suspending solution): 29 % of control and 31 % of control and 33 % of control
- T/C (dose: 281.25 mg/kg/injection, schedule: Q#A X014 (sc), vehicle: steriod suspending solution): 22 % of control and 28 % of control and 42 % of control
- T/C (dose: 500.0 mg/kg/injection, schedule: Q01DX007 (sc), vehicle: steriod suspending solution): 25 % of control
- T/C (dose: 562.0 mg/kg/injection, schedule: Q01DX007 (sc), vehicle: steriod suspending solution): 36 % of control
- T/C (dose: 600.0 mg/kg/injection, schedule: Q01DX007 (sc), vehicle: steriod suspending solution): 20 % of control
- T/C (dose: 700.0 mg/kg/injection, schedule: Q01DX007 (sc), vehicle: steriod suspending solution): 28 % of control
- T/C (dose: 800.0 mg/kg/injection, schedule: Q01DX007 (sc), vehicle: steriod suspending solution): 16 % of control
- T/C (dose: 843.0 mg/kg/injection, schedule: Q01DX007 (sc), vehicle: steriod suspending solution): 21 % of control
- T/C (dose: 1265.0 mg/kg/injection, schedule: Q01DX007 (sc), vehicle: steriod suspending solution): 29 % of control
- T/C (dose: 1890.0 mg/kg/injection, schedule: Q01DX007 (sc), vehicle: steriod suspending solution): 24 % of control

SMILES: O=CCC(O)C(O)C(O)CO (centres undefined)
- T/C [1]: 86 % of control
- T/C [2]: 75 % of control
- T/C [3]: 76 % of control
- T/C (dose: 1000.0 mg/kg/injection, schedule: Q01DX007 (ip), vehicle: carboxymethylcellulose (CMC)): 67 % of control

SMILES: O=CNC(Cc1ccc(N(CCCl)CCCl)cc1)C(=O)O (centres undefined)
- T/C (dose: 22.0 mg/kg/injection, schedule: Q#A X014 (ip), vehicle: methylcellulose (MC)): 61 % of control
- T/C (dose: 33.0 mg/kg/injection, schedule: Q#A X014 (ip), vehicle: methylcellulose (MC)): 60 % of control
- T/C (dose: 50.0 mg/kg/injection, schedule: Q#A X014 (ip), vehicle: methylcellulose (MC)): 25 % of control
- T/C (dose: 75.0 mg/kg/injection, schedule: Q#A X014 (ip), vehicle: methylcellulose (MC)): 11 % of control

SMILES: C(=N\N(c1ccccc1)c1ccccc1)/C(=C/c1ccccc1)c1ccccc1
- T/C [1]: 85 % of control
- T/C [2]: 92 % of control
- T/C [3]: 102 % of control

SMILES: CCOC(=O)NP(=O)(N1CC1)N1CC1
- T/C (dose: 937.0 micrograms/kg/injection, schedule: Q01DX007 (ip), vehicle: carboxymethylcellulose (CMC)): 113 % of control
- T/C (dose: 1875.0 micrograms/kg/injection, schedule: Q01DX007 (ip), vehicle: carboxymethylcellulose (CMC)): 100 % of control
- T/C (dose: 7500.0 micrograms/kg/injection, schedule: Q01DX007 (ip), vehicle: carboxymethylcellulose (CMC)): 74 % of control

SMILES: C/C=C1\CN(C)[C@H]2Cc3c([nH]c4ccccc34)[C@@H](c3cc4[nH]c5c(c4cc3OC)CCN3C[C@H]4C[C@H](CC)[C@H]3[C@@]5(C(=O)OC)C4)C[C@H]1C2C(=O)OC (some centres undefined)
- T/C (dose: 35.0 mg/kg/injection, schedule: Q01DX007 (ip), vehicle: water): 58 % of control
- T/C (dose: 50.0 mg/kg/injection, schedule: Q01DX007 (ip), vehicle: water): 74 % of control and 90 % of control
- T/C (dose: 70.0 mg/kg/injection, schedule: Q01DX007 (ip), vehicle: water): 38 % of control and 59 % of control
- T/C (dose: 90.0 mg/kg/injection, schedule: Q01DX007 (ip), vehicle: water): 30 % of control

SMILES: O=C(O)C(=O)O.[U]
- T/C (dose: 1.5 mg/kg/injection, schedule: Q01DX007 (ip), vehicle: saline): 85 % of control
- T/C (dose: 3.0 mg/kg/injection, schedule: Q01DX007 (ip), vehicle: saline): 79 % of control
- T/C (dose: 6.0 mg/kg/injection, schedule: Q01DX007 (ip), vehicle: saline): 82 % of control
- T/C (dose: 18.5 mg/kg/injection, schedule: Q01DX007 (ip), vehicle: saline): 32 % of control
- T/C (dose: 27.8 mg/kg/injection, schedule: Q01DX007 (ip), vehicle: saline): 33 % of control and 42 % of control
- T/C (dose: 41.7 mg/kg/injection, schedule: Q01DX007 (ip), vehicle: saline): 41 % of control
- T/C [4]: 35 % of control
- T/C (dose: 93.8 mg/kg/injection, schedule: Q01DX007 (ip), vehicle: saline): 39 % of control

SMILES: CN(C)[C@@H]1C(=O)C(C(N)=O)=C(O)[C@@]2(O)C(=O)C3=C(O)c4c(O)cccc4C[C@H]3C[C@@H]12
- T/C (dose: 20.0 mg/kg/injection, schedule: Q#A X014 (ip), vehicle: other): 64 % of control
- T/C (dose: 30.0 mg/kg/injection, schedule: Q#A X014 (ip), vehicle: other): 61 % of control
- T/C (dose: 45.0 mg/kg/injection, schedule: Q#A X014 (ip), vehicle: other): 31 % of control

SMILES: Cc1ncc([N+](=O)[O-])n1CCCl
- T/C [4]: 108 % of control
- T/C (dose: 250.0 mg/kg/injection, schedule: Q01DX007 (ip), vehicle: saline): 78 % of control

SMILES: NCCCC(NC(=O)CCCCCCCCN=C(N)N)C(O)CCCCCCCCN=C(N)N (centres undefined)
- T/C (dose: 0.38 mg/kg/injection, schedule: Q01DX007 (ip), vehicle: carboxymethylcellulose (CMC)): 100 % of control
- T/C (dose: 0.75 mg/kg/injection, schedule: Q01DX007 (ip), vehicle: carboxymethylcellulose (CMC)): 97 % of control
- T/C (dose: 1.5 mg/kg/injection, schedule: Q01DX007 (ip), vehicle: carboxymethylcellulose (CMC)): 113 % of control
- T/C (dose: 3.0 mg/kg/injection, schedule: Q01DX007 (ip), vehicle: carboxymethylcellulose (CMC)): 76 % of control
- T/C (dose: 6.0 mg/kg/injection, schedule: Q01DX007 (ip), vehicle: carboxymethylcellulose (CMC)): 92 % of control
- T/C (dose: 9.0 mg/kg/injection, schedule: Q01DX007 (ip), vehicle: carboxymethylcellulose (CMC)): 123 % of control
- T/C (dose: 12.0 mg/kg/injection, schedule: Q01DX007 (ip), vehicle: carboxymethylcellulose (CMC)): 68 % of control
- T/C (dose: 15.0 mg/kg/injection, schedule: Q01DX007 (ip), vehicle: carboxymethylcellulose (CMC)): 47 % of control

SMILES: S=P(N1CCCCC1)(N1CC1)N1CC1
- T/C (dose: 55.0 mg/kg/injection, schedule: Q01DX007 (ip), vehicle: saline): 26 % of control
- T/C (dose: 84.0 mg/kg/injection, schedule: Q01DX007 (ip), vehicle: saline): 26 % of control
- T/C (dose: 125.0 mg/kg/injection, schedule: Q01DX007 (ip), vehicle: saline): 14 % of control
- T/C (dose: 188.0 mg/kg/injection, schedule: Q01DX007 (ip), vehicle: saline): 8 % of control

SMILES: CC[C@](C)(O)C(=O)O[C@H]1C(=O)O[C@@H]2C[C@H]3C(C)=C[C@H](O)[C@@H](O)[C@]3(C)[C@H]3[C@@]4(O)OC[C@]32[C@@H]1[C@@H](C)[C@H]4O
- T/C (dose: 0.5 mg/kg/injection, schedule: Q01DX007 (sc), vehicle: olive oil, sesame oil, peanut oil): 60 % of control
- T/C (dose: 1.0 mg/kg/injection, schedule: Q01DX007 (sc), vehicle: olive oil, sesame oil, peanut oil): 64 % of control
- T/C (dose: 2.0 mg/kg/injection, schedule: Q01DX007 (sc), vehicle: olive oil, sesame oil, peanut oil): 67 % of control
- T/C (dose: 4.0 mg/kg/injection, schedule: Q01DX007 (sc), vehicle: olive oil, sesame oil, peanut oil): 77 % of control and 80 % of control
- T/C (dose: 6.0 mg/kg/injection, schedule: Q01DX007 (sc), vehicle: olive oil, sesame oil, peanut oil): 97 % of control
- T/C (dose: 9.0 mg/kg/injection, schedule: Q01DX007 (sc), vehicle: olive oil, sesame oil, peanut oil): 93 % of control

SMILES: Cn1cnc([N+](=O)[O-])c1Sc1nc(N)nc2nc[nH]c12
- T/C (dose: 1.35 mg/kg/injection, schedule: Q#A X014 (ip), vehicle: methylcellulose (MC)): 95 % of control
- T/C (dose: 3.0 mg/kg/injection, schedule: Q#A X014 (ip), vehicle: methylcellulose (MC)): 31 % of control
- T/C (dose: 5.0 mg/kg/injection, schedule: Q#A X014 (ip), vehicle: methylcellulose (MC)): 27 % of control
- T/C (dose: 5.15 mg/kg/injection, schedule: Q#A X014 (ip), vehicle: methylcellulose (MC)): 29 % of control
- T/C (dose: 7.5 mg/kg/injection, schedule: Q#A X014 (ip), vehicle: methylcellulose (MC)): 22 % of control
- T/C (dose: 7.75 mg/kg/injection, schedule: Q#A X014 (ip), vehicle: methylcellulose (MC)): 29 % of control
- T/C (dose: 11.5 mg/kg/injection, schedule: Q#A X014 (ip), vehicle: methylcellulose (MC)): 3 % of control

SMILES: COC(=O)C1=CO[C@@H](C)[C@@H]2Cn3ccc4c5ccccc5nc-4c3C[C@H]12
- T/C (dose: 10.0 mg/kg/injection, schedule: Q01DX007 (ip), vehicle: other): 113 % of control
- T/C (dose: 50.0 mg/kg/injection, schedule: Q01DX007 (ip), vehicle: other): 74 % of control
